Source: patent publication US9833492B2, “Combinations of a caspase inhibitor and an antiviral agent” (INSTITUT NATIONAL DE LA SANTE ET DE LA RECHERCHE MEDICALE …, priority 2007, dated 2017)
“Also recorded” adds a separate entry of the source. Where two headings read alike, the source gives them in different places. Where a SMILES comes first, the peptide text is derived from it. [ ]: non-standard residue; d: D form. The star is where a group is joined. Sta = CC(C)C[C@H](N)[C@@H](O)CC(=O)O; Isovaleryl = CC(C)CC(=O)*; Cbz = O=C(OCc1ccccc1)*; CH2F = FC*

Tests used:
[1] = test system: lymphocytes stimulated by 1 μg/ml of anti-CD-3; assay: lymphocyte proliferation test with CFSE; type: cell-based, human
Procedure: FIG. 13. Analysis by flow cytometry of lymphocyte proliferation after 4 and 5 days' stimulation by 1 μg/ml of anti-CD-3, in the presence or absence of HIV antiproteases or of QVD-OPH.
The PBMCs are incubated in the presence of 1 μM of CFSE for 7 minutes at 37° C. The cells are taken up at 1·10^6/ml and then placed in culture and activated by an anti-CD3 at 1 μg/ml (Immunotech).
A lymphocyte proliferation study was conducted with the fluorescent probe CFSE, which allows cell division to be monitored.

[2] = test system: cells stimulated by anti-CD3; type: cell-based; conditions: human, 1 day, 50 μM
Procedure: FIG. 14. Analysis of the fall in the mitochondrial transmembrane potential (% Δφm low) by flow cytometry starting from cells stimulated by 1 μg/ml of anti-CD-3 in the presence or absence of different HIV antiproteases and of QVD-OPH.
(§1) In order to evaluate the change in the transmembrane potential of the inner mitochondrial membrane, the cells were labelled with a fluorescent probe DIOC6 (Molecular Probes, Invitrogen), at a concentration of 40 nM, and incubated for 15 minutes at 37° C. Viral replication was evaluated by internal labelling of the p24 viral protein using an anti-p24-PE antibody (KC-57, Coulter Corp, Beckman).
The cell toxicity was evaluated by analysis of the fall in the mitochondrial transmembrane potential (% Δφm low) using the probe DIOC6, by flow cytometry. The cells stimulated by anti-CD3 were analyzed in the same way on the day following activation.

[3] = test system: Cytochrome c, Smac/Diablo and Endonuclease G in primary CD4+ T cells infected with HIV-Lai; assay: immunoblot of release of apoptogenic mitochondrial factors after subcellular fractionation; type: cell-based, human; conditions: 10 μM, day 5 after infection
Procedure: FIG. 3: Immunoblot (Western blot) showing the effect of Q-VD-OPh on mitochondrial damage resulting from viral replication. Primary CD4+ T cells were infected with HIV-Lai and stimulated with a ConA/IL-2 cocktail and then treated or not treated with 10 μM of Q-VD-OPh (QVD) and/or 10 μM of pepstatin A (PA) immediately after stimulation and then 36 hours (day 3) and 96 hours (day 4) after infection. On the 5th day post-infection, the cells were fractionated into two parts: the membrane fraction and the cytosol fraction. The relocalization of the apoptogenic factors Cytochrome c (Cyt c), Smac/Diablo and Endonuclease G (EndoG) was then evaluated by immunotransfer (Western blot). The proteins Cytochrome c, Smac/Diablo and EndoG were detected using the antibodies indicated above. The proteins Cox IV and actin detected by means of the anti-subunit IV antibodies (clone 1068 Molecular Probe) and anti-actin antibodies (SIGMA), respectively, were used as the control for the fractionation procedure and as the control for the protein load of the gel, respectively. […]
The cytosol and mitochondrial fractions were obtained by the subcellular fractionation technique based on selective permeabilization by digitonin according to Foghsgaard et al. {Foghsgaard, 2001}. […] The protein concentration of the cytosol and mitochondrial fractions was determined by the bicinchoninic acid (BCA) method (Bio-Rad). […]

[4] = test system: Primary CD4 T cells infected by the viral strain HIV-Lai; assay: Example 2: death by fall in mitochondrial transmembrane potential in infected primary CD4 T cells; type: cell-based, human; conditions: 10 μM
Procedure: (§2) FIG. 11. Analysis by flow cytometry of the internal viral protein p24 (A) and of the fall in the mitochondrial transmembrane potential (% Δφm low; B) on the 5th (d5) and 7th (d7) day post-infection in primary CD4+ T cells infected by the strain HIV-Lai, after stimulation by Concanavalin A and IL-2 and in the presence or absence of 10 μM of different caspase inhibitors.
as §1
(§3) Primary CD4 T cells were infected by the viral strain HIV-Lai and then stimulated by ConA/IL-2 in the presence or absence of Q-VD-OPH, Q-DEVD-OPH (casp-3 inhibitor), Q-LEDH-OPH (caspase-9 inhibitor) and Q-IETD-OPH (caspase-8 inhibitor) at 10 μM for each of the inhibitors. On days 5 and 7 post-infection, the internal p24 viral protein is measured by flow cytometry after fixation and permeabilization of the CD4 T cells. […] Death was evaluated by analysis of the fall in the mitochondrial transmembrane potential (% Δφm low) using the probe DIOC6 by flow cytometry (FIG. 11B). […]

HIV viral proteins = assay: Example 2: immunoblot of HIV viral proteins in infected primary CD4 T cells; type: cell-based, HIV-1; conditions: versus control cultures
Procedure: FIG. 12. Analysis by immunoblot of the quantity of HIV viral proteins produced from extracts of primary CD4 T cells infected by the strain HIV-Lai in the presence or absence of different caspase inhibitors.
20 μg extracts of total lysate prepared with 1% NP40 were boiled for 5 minutes in Laemmli buffer containing 2% SDS and 10% 2-β-mercaptoethanol, then deposited on 10-20% polyacrylamide gradient gels (Invitrogen). After transfer of the proteins, the immunoblots were incubated with the following primary antibodies: anticaspase-3, anticaspase-8 and anticaspase-9 (Cell Signaling), anti-PARP (Pharmingen) and anti-Tubulin (Santa-Cruz).
Primary CD4 T cells were infected by the viral strain HIV-Lai and then stimulated by ConA/IL-2 in the presence or absence of Q-VD-OPH, Q-DEVD-OPH (casp-3 inhibitor), Q-LEDH-OPH (caspase-9 inhibitor) and Q-IETD-OPH (caspase-8 inhibitor) at 10 μM for each of the inhibitors. On days 5 and 7 post-infection, the internal p24 viral protein is measured by flow cytometry after fixation and permeabilization of the CD4 T cells. […] Death was evaluated by analysis of the fall in the mitochondrial transmembrane potential (% Δφm low) using the probe DIOC6 by flow cytometry (FIG. 11B). […] Extracts of primary CD4 T cells infected in the presence or absence of the different caspase inhibitors as well as QVD-OPH were analyzed by immunoblot for the HIV viral proteins (FIG. 12).

viral strain HIV-Lai = assay: Example 2: internal p24 viral protein by flow cytometry with different caspase inhibitors; type: cell-based, HIV-1; conditions: 10 μM
Procedure: as §2, §1, §3

apoptosis = conditions: Caserta et al., 2003; cited from earlier work
HIV-1 virus = conditions: cited from earlier work
cells infected by HIV = cells infected by HIV (Petit et al., 2002), cited from earlier work
[5] = test system: primary strains of the HIV-1 virus; assay: replication of primary HIV-1 strains in CD4+ T lymphocytes (p24); type: cell-based; conditions: 1 μM
Procedure: FIG. 7: Graphic representation showing the effect of Q-VD-OPh on primary HIV-1 strains. In all cases (A, B and C), the CD4+ T lymphocytes were stimulated with concanavalin A and IL2 (stimulation being carried out before or during administration of Q-VD-OPh), […], immediately after infection and then 36 hours (d3) and 96 hours (d4) post-infection. A. Analysis by flow cytometry of viral replication in CD4+ T lymphocytes infected with the HIV-1Lai virus or with the serum of a chronic HIV+ patient (strain with X4/R5 dual tropism) and then cultivated in the absence or presence (+Q-VD) of Q-VD-OPh. The percentage of CD4+ cells infected by HIV was determined after intracellular labelling of the p24 viral antigen on the 5th day post-infection in the case of the HIV-Lai virus and on the 6th day post-infection in the case of the serum. […] B. Quantification of viral replication (on the left) and of cell death by measurement of mitochondrial depolarization (on the right) in CD4+ T lymphocytes infected with the serum of the chronic HIV+ patient. […]
The CD4^+ cells were incubated for 2 hours at 37° C. in the presence of 10 ng/ml of HIV-1 virus of strain Lai or 50 ng/ml of primary strains of the HIV-1 virus. […] The HIV p24 antigen, the control for the viral load, was measured in the cell culture supernatants by an ELISA test (Abbott). […]

Compound: CC(C)(C)NC(=O)[C@@H]1CN(Cc2cccnc2)CCN1C[C@@H](O)C[C@@H](Cc1ccccc1)C(=O)N[C@H]1c2ccccc2C[C@H]1O [Indinavir]
- lymphocyte proliferation (CFSE) ([1]; 50 μM, after 4 and 5 days' stimulation): block the proliferation
- fall in Δφm [2]: 70-80%

Compound: CC(C)CC(=O)N[C@H](C(=O)N[C@H](C(=O)N[C@@H](CC(C)C)[C@@H](O)CC(=O)N[C@@H](C)C(=O)N[C@@H](CC(C)C)[C@@H](O)CC(=O)O)C(C)C)C(C)C [pepstatin A] (Isovaleryl-VV[Sta]A[Sta]-OH)
- mitochondrial damage: apoptogenic factors Cytochrome C, Smac/Diablo and EndoG in the cytosol fraction [3]: no effect

Compound: Q-DEVD-OPH
- death, fall in the mitochondrial transmembrane potential (% Δφm low) [4]: absence of effect
- quantity of viral proteins produced (HIV viral proteins): slightly lower
- inhibition of viral replication (p24) (viral strain HIV-Lai; d5): weak effect
- inhibition of viral replication (p24) (viral strain HIV-Lai; d7): absence of protection

Compound: COC(=O)CC(NC(=O)OC(C)(C)C)C(=O)CF [Boc-D-fmk, tert-butyloxycarbonyl-Asp(O-methyl)-fluoromethyl ketone]
- inhibition of apoptosis (apoptosis): inhibits apoptosis in a dose-dependent manner

Compound: CC(C)[C@H](NC(=O)OCc1ccccc1)C(=O)N[C@@H](C)C(=O)N[C@@H](CC(=O)O)C(=O)CF [z-VAD-fmk, N-benzyloxycarbonyl-Val-Ala-Asp-fluoromethyl ketone] (Cbz-Val-Ala-Asp-CH2F)
- effect on viral replication (HIV-1 virus; T-leukaemia cells (CEM) or PBMC exposed to HIV-1 (Chinnaiyan et al., 1997)): increasing viral replication
- endogenous viral replication (HIV-1 virus; activated PBMCs from HIV-1-positive asymptomatic patients (Chinnaiyan et al., 1997)): stimulating endogenous viral replication
- inhibition of viral replication (HIV-1 virus; in vitro (Gandhi et al., 1998; Petit et al., 2002)): nor does it inhibit viral replication; also recorded: did not enable viral replication to be inhibited
- inhibition of apoptosis (apoptosis): inhibits apoptosis in a dose-dependent manner
- apoptotic phenotype (condensation and fragmentation of the nuclear chromatin) (cells infected by HIV): prevents the apoptotic phenotype
- prevention of mitochondrial depolarization, apoptosis or cell death (cells infected by HIV): does not inhibit apoptosis
- prevention of mitochondrial depolarization, apoptosis or cell death (cells infected by HIV; listed as zVAD-kmk): does not prevent either mitochondrial depolarization or cell death

Compound: O=c1[nH]cnc2c1ncn2[C@H]1CC[C@@H](CO)O1 [ddl]
- replication of five primary HIV-1 isolates of R5 tropism [5]: strong inhibition of viral replication

Compound: CC(C)(C)NC(=O)[C@@H]1C[C@@H]2CCCC[C@@H]2CN1C[C@@H](O)[C@H](Cc1ccccc1)NC(=O)[C@H](CC(N)=O)NC(=O)c1ccc2ccccc2n1 [Saquinavir]
- lymphocyte proliferation (CFSE) [1]: block the proliferation
- fall in Δφm [2]: 70-80%
